Results as given in patent US4690926A, “Boxazomycin A and B, new antibiotics containing benzoxazole nucleus” (Bristol-Myers Company, priority 1986, dated 1987).
In brackets after ≈: the same amount, converted by molar mass. Structures can show the parent of a compound that is named as a salt.

Assays:
M. smegmatis 607 D46 = format: cell-based, Mycobacterium smegmatis; settings: Mycolicibacterium smegmatis, Nutrient agar (Eiken), kanamycin-resistant
S. aureus A22421 = format: cell-based; settings: Staphylococcus aureus, Nutrient agar (Eiken), methicillin-resistant
[1] = system: Bacillus subtilis PCI 219; settings: PCI219
[2] = system: Propionibacterium acnes A21933; settings: Cutibacterium acnes
[3] = system: Bacteroides fragilis A22693
[4] = system: Haemophilus influenzae A9729
C. perfringens A9635 [5] = assay: microbe, parasite or virus in culture; format: cell-based; settings: Clostridium perfringens
[6] = system: Neisseria gonorrhoeae A15112
[7] = system: Klebsiella pneumoniae D-11; settings: D11
[8] = system: Staphylococcus aureus Smith; assay: In vivo efficacy in infected mice; set-up: species or system Staphylococcus aureus; mice; settings: for ED50: Staphylococcus aureus, im, 100×LD50 challenge in 5% hog gastric mucin, i.m. just before challenge, read-out: PD50
[9] = system: Streptococcus pyogenes S-23; settings: S23
[10] = system: Mycobacterium smegmatis 607; settings: Mycolicibacterium smegmatis
M. phlei D88 = settings: Mycolicibacterium phlei
S. aureus A20239 = format: cell-based; settings: Staphylococcus aureus, Nutrient agar (Eiken), kanamycin-resistant
[11] = system: Peptostreptococcus anaerobius A21905
S. aureus BX-1633 = format: cell-based; settings: Staphylococcus aureus, BX1633; Nutrient agar (Eiken); lactamase producer
[12] = system: Clostridium difficile A21675; format: cell-based; settings: Clostridioides difficile, GA agar (Nissui), clindamycin-resistant
[13] = system: Pseudomonas aeruginosa D-113; settings: D113
B. fragilis A22534 = format: cell-based; settings: Bacteroides fragilis, GA agar (Nissui), lactamase producer
S. pneumoniae IID = settings: Streptococcus pneumoniae
B. subtilis PCI 219 = assay: Effect of pH on antimicrobial activity (MIC, Table 8); format: cell-based; settings: Bacillus subtilis
[14] = format: physicochemical
S. necrophorus A15202 = assay: Effect of pH on antimicrobial activity (MIC, Table 8); format: cell-based; settings: Fusobacterium necrophorum
Acidity = format: physicochemical
C. perfringens A9635 [15] = assay: microbe, parasite or virus in culture; format: cell-based; settings: Clostridium perfringens; remark: listed apart in the source
E. coli NIHJ = assay: Effect of pH on antimicrobial activity (MIC, Table 8); format: cell-based; settings: Escherichia coli
P. acnes A21933 = assay: as above; format: cell-based, Propionibacterium acnes; settings: Cutibacterium acnes
B. fragilis A20926 = assay: as above; format: cell-based; settings: Bacteroides fragilis
K. pneumoniae D11 = assay: as above; format: cell-based; settings: Klebsiella pneumoniae
[16] = system: Clostridium perfringens A9635; assay: animal or person; format: in vivo, Clostridium perfringens; mice
Toxicity, i.m. = settings: up to a dose of 400 mg/kg (i.m.)

## NC[C@H]1O[C@H](O[C@H]2[C@H](O)[C@@H](O[C@H]3O[C@H](CO)[C@@H](O)[C@H](N)[C@H]3O)[C@H](N)C[C@@H]2N)[C@H](O)[C@@H](O)[C@@H]1O [Kanamycin, kanamycin, reference compound]
M. smegmatis 607 D46
  MIC: > 100 µg/mL
S. aureus A22421
  MIC: 0.8 µg/mL (≈ 1.65 µM)
[1]
  MIC: 0.2 µg/mL (≈ 0.413 µM)
[2]
  MIC: > 50 µg/mL
[3]
  MIC: 50 µg/mL (≈ 103 µM)
[4]
  MIC: 0.4 µg/mL (≈ 0.826 µM)
C. perfringens A9635 [5]
  MIC: > 50 µg/mL
[6]
  MIC: 0.4 µg/mL (≈ 0.826 µM)
[7]
  MIC: 0.4 µg/mL (≈ 0.826 µM)
[8]
  ED50: 1.4 mg/kg
[9]
  MIC: 25 µg/mL (≈ 51.6 µM)
[10]
  MIC: 0.8 µg/mL (≈ 1.65 µM)
M. phlei D88
  MIC: 1.6 µg/mL (≈ 3.3 µM)
S. aureus A20239
  MIC: > 100 µg/mL
[11]
  MIC: > 50 µg/mL
S. aureus BX-1633
  MIC: 0.8 µg/mL (≈ 1.65 µM)
[12]
  MIC: > 50 µg/mL
[13]
  MIC: 25 µg/mL (≈ 51.6 µM)
B. fragilis A22534
  MIC: 50 µg/mL (≈ 103 µM)
S. pneumoniae IID
  MIC: 25 µg/mL (≈ 51.6 µM)

## Cc1ncc(O)c(-c2nc3c(C(N)=O)c(O)cc(C)c3o2)n1 [Boxazomycin B]
B. subtilis PCI 219; PCI219, pH 6
  MIC: 0.2 µg/mL (≈ 0.666 µM)
B. subtilis PCI 219; PCI219, pH 7
  MIC: 1.6 µg/mL (≈ 5.33 µM)
M. smegmatis 607 D46
  MIC: 3.1 µg/mL (≈ 10.3 µM)
[14]
  solubility in alkaline water and dimethylformamide: readily soluble
  solubility in ethyl acetate, chloroform, benzene and n-hexane: practically insoluble
  solubility in water, methanol, ethanol and acetone: slightly soluble
S. necrophorus A15202; A15202, pH 6
  MIC: 0.4 µg/mL (≈ 1.33 µM)
S. necrophorus A15202; A15202, pH 7
  MIC: 6.3 µg/mL (≈ 21 µM)
Acidity
  acidity: weakly acidic
C. perfringens A9635 [15]; A9635, pH 6
  MIC: 0.4 µg/mL (≈ 1.33 µM)
C. perfringens A9635 [15]; A9635, pH 7
  MIC: 6.3 µg/mL (≈ 21 µM)
S. aureus A22421
  MIC: 0.8 µg/mL (≈ 2.66 µM)
E. coli NIHJ; pH 6
  MIC: > 100 µg/mL
E. coli NIHJ; pH 7
  MIC: > 100 µg/mL
P. acnes A21933; A21933, pH 6
  MIC: 0.2 µg/mL (≈ 0.666 µM)
P. acnes A21933; A21933, pH 7
  MIC: 6.3 µg/mL (≈ 21 µM)
[1]
  MIC: 1.6 µg/mL (≈ 5.33 µM)
[2]
  MIC: 6.3 µg/mL (≈ 21 µM)
[3]
  MIC: 12.5 µg/mL (≈ 41.6 µM)
[4]
  MIC: > 100 µg/mL
C. perfringens A9635 [5]
  MIC: 12.5 µg/mL (≈ 41.6 µM)
[6]
  MIC: > 100 µg/mL
[7]
  MIC: > 100 µg/mL
B. fragilis A20926; A20926, pH 6
  MIC: 0.1 µg/mL (≈ 0.333 µM)
B. fragilis A20926; A20926, pH 7
  MIC: 3.1 µg/mL (≈ 10.3 µM)
[9]
  MIC: 12.5 µg/mL (≈ 41.6 µM)
[10]
  MIC: 3.1 µg/mL (≈ 10.3 µM)
M. phlei D88
  MIC: 1.6 µg/mL (≈ 5.33 µM)
S. aureus A20239
  MIC: 0.8 µg/mL (≈ 2.66 µM)
[11]
  MIC: 6.3 µg/mL (≈ 21 µM)
S. aureus BX-1633
  MIC: 0.8 µg/mL (≈ 2.66 µM)
K. pneumoniae D11; D11, pH 6
  MIC: > 100 µg/mL
K. pneumoniae D11; D11, pH 7
  MIC: > 100 µg/mL
[12]
  MIC: 6.3 µg/mL (≈ 21 µM)
[13]
  MIC: > 100 µg/mL
B. fragilis A22534
  MIC: 12.5 µg/mL (≈ 41.6 µM)
S. pneumoniae IID
  MIC: 25 µg/mL (≈ 83.3 µM)

## Cc1cc(O)c(C(N)=O)c2nc(-c3nc(CO)ncc3O)oc12 [Boxazomycin A]
B. subtilis PCI 219; PCI219, pH 6
  MIC: 0.8 µg/mL (≈ 2.53 µM)
B. subtilis PCI 219; PCI219, pH 7
  MIC: 6.3 µg/mL (≈ 19.9 µM)
M. smegmatis 607 D46
  MIC: 1.6 µg/mL (≈ 5.06 µM)
[14]
  solubility in alkaline water and dimethylformamide: readily soluble
  solubility in ethyl acetate, chloroform, benzene and n-hexane: practically insoluble
  solubility in water, methanol, ethanol and acetone: slightly soluble
S. necrophorus A15202; A15202, pH 6
  MIC: 0.4 µg/mL (≈ 1.26 µM)
S. necrophorus A15202; A15202, pH 7
  MIC: 3.1 µg/mL (≈ 9.8 µM)
Acidity
  acidity: weakly acidic
C. perfringens A9635 [15]; A9635, pH 6
  MIC: 0.2 µg/mL (≈ 0.632 µM)
C. perfringens A9635 [15]; A9635, pH 7
  MIC: 3.1 µg/mL (≈ 9.8 µM)
S. aureus A22421
  MIC: 0.8 µg/mL (≈ 2.53 µM)
E. coli NIHJ; pH 6
  MIC: > 100 µg/mL
E. coli NIHJ; pH 7
  MIC: > 100 µg/mL
[16]; Clostridium perfringens, A9635, in Mus musculus, im, read-out: PD50
  ED50: 220 mg/kg
[16]; mice, i.m.
  in vivo efficacy relative to in vitro activity: lower than that expected from its in vitro activity
  protective effect: protective effect in mice against both infections
P. acnes A21933; A21933, pH 6
  MIC: 0.4 µg/mL (≈ 1.26 µM)
P. acnes A21933; A21933, pH 7
  MIC: 6.3 µg/mL (≈ 19.9 µM)
[1]
  MIC: 3.1 µg/mL (≈ 9.8 µM)
[2]
  MIC: 3.1 µg/mL (≈ 9.8 µM)
[3]
  MIC: 6.3 µg/mL (≈ 19.9 µM)
[4]
  MIC: > 100 µg/mL
C. perfringens A9635 [5]
  MIC: 3.1 µg/mL (≈ 9.8 µM)
Toxicity, i.m.
  toxic symptoms: did not show any toxic symptoms up to a dose of 400 mg/kg (i.m.)
[6]
  MIC: > 100 µg/mL
[7]
  MIC: > 100 µg/mL
B. fragilis A20926; A20926, pH 6
  MIC: 0.05 µg/mL (≈ 0.158 µM)
B. fragilis A20926; A20926, pH 7
  MIC: 3.1 µg/mL (≈ 9.8 µM)
[8]
  ED50: 400 mg/kg
[8]; i.m.
  in vivo efficacy relative to in vitro activity: lower than that expected from its in vitro activity
  protective effect: protective effect in mice against both infections
[9]
  MIC: 3.1 µg/mL (≈ 9.8 µM)
[10]
  MIC: 1.6 µg/mL (≈ 5.06 µM)
M. phlei D88
  MIC: 0.8 µg/mL (≈ 2.53 µM)
S. aureus A20239
  MIC: 0.4 µg/mL (≈ 1.26 µM)
[11]
  MIC: 3.1 µg/mL (≈ 9.8 µM)
S. aureus BX-1633
  MIC: 0.8 µg/mL (≈ 2.53 µM)
K. pneumoniae D11; D11, pH 6
  MIC: > 100 µg/mL
K. pneumoniae D11; D11, pH 7
  MIC: > 100 µg/mL
[12]
  MIC: 3.1 µg/mL (≈ 9.8 µM)
[13]
  MIC: > 100 µg/mL
B. fragilis A22534
  MIC: 3.1 µg/mL (≈ 9.8 µM)
S. pneumoniae IID
  MIC: 3.1 µg/mL (≈ 9.8 µM)

## Cc1cc(O)c(C(N)=O)c2nc(-c3nc(CO)ncc3O)oc12 [Boxazomycin A di-sodium salt]
[14]
  solubility in water: soluble in water
